Experiments:
Format in all cases: in vivo
[1] = system: barnyardgrass (Echinochloa crus-galli); assay: Test C flooded paddy test plant response; details: Flood, 250 g ai/ha; scale of 0 to 100 where 0 is no effect and 100 is complete control; 13 to 15 days
In short: (§1)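 Readout is a visual 0–100 score (100 = complete control) versus controls at 13–15 days. Plants at 2-leaf stage, flooded to 3 cm, treated through paddy water.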

rice (Oryza sativa) = assay: Test C flooded paddy test plant response; details: Flood, 250 g ai/ha; scale of 0 to 100 where 0 is no effect and 100 is complete control; 13 to 15 days
In short: as §1

[2] = system: small-flower umbrella sedge (Cyperus difformis); assay: Test C flooded paddy test plant response; details: Flood, 250 g ai/ha; scale of 0 to 100 where 0 is no effect and 100 is complete control; 13 to 15 days
In short: as §1

[3] = system: ducksalad (Heteranthera limosa); assay: Test C flooded paddy test plant response; details: Flood, 250 g ai/ha; scale of 0 to 100 where 0 is no effect and 100 is complete control; 13 to 15 days
In short: as §1

corn (Zea mays) = assay: Test B pre-/postemergence plant response
In short: (§2)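 Seeds in loam–sand blend given preemergence soil spray; separately, plants at one- to two-leaf stage (2–10 cm) sprayed postemergence, compounds in non-phytotoxic solvent with surfactant. Injury rated visually versus untreated controls after ~10 days in greenhouse, 0 (no effect) to 100 (complete control).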

kochia (Kochia scoparia) = assay: Test B pre-/postemergence plant response
In short: as §2

[4] = system: giant foxtail (Setaria faberii); assay: Test B pre-/postemergence plant response
In short: as §2

[5] = system: barnyardgrass (Echinochloa crus-galli); assay: Test B pre-/postemergence plant response
In short: as §2

[6] = system: pigweed (Amaranthus retroflexus); assay: Test B pre-/postemergence plant response
In short: as §2

[7] = system: ragweed (common ragweed, Ambrosia elatior); assay: Test B pre-/postemergence plant response
In short: as §2

[8] = system: Italian ryegrass (Lolium multiflorum); assay: Test B pre-/postemergence plant response
In short: as §2

[9] = system: wheat (Triticum aestivum); assay: Test B pre-/postemergence plant response
In short: as §2

[10] = system: blackgrass (Alopecurus myosuroides); assay: Test B postemergence plant response
In short: (§3)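 Weeds grown in loam soil/sand pots were sprayed postemergence at 2 to 10 cm height, one- to two-leaf stage. After approximately 10 days in greenhouse, injury was rated visually against untreated controls on a 0 (no effect) to 100 (complete control) scale; dash means no test result.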

[11] = system: galium (catchweed bedstraw, Galium aparine); assay: Test B postemergence plant response
In short: as §3

[12] = 31 g ai/ha, Postemergence, 0 to 100 scale, 0 no effect, 100 complete control
[13] = 125 g ai/ha, postemergence, 0 to 100 scale, 0 no effect, 100 complete control
[14] = 31 g ai/ha, Preemergence, 0 to 100 scale where 0 is no effect and 100 is complete control
[15] = Preemergence, 125 g ai/ha, 0 to 100 scale where 0 is no effect and 100 is complete control
[16] = Postemergence, 500 g ai/ha, 0 to 100 scale (0 no effect, 100 complete control)
[17] = Preemergence, 125 g ai/ha, 0 to 100 scale (0 no effect, 100 complete control)
[18] = Preemergence, 500 g ai/ha, 0 to 100 scale where 0 is no effect and 100 is complete control
[19] = Preemergence, 31 g ai/ha, 0 to 100 scale (0 no effect, 100 complete control)

## Brc1cnc(Oc2ccccc2-c2cc(Br)no2)nc1 [Compound 119]
[1]
  Barnyardgrass plant response rating: 0
Rice (Oryza sativa)
  Rice plant response rating: 0
[2]
  Sedge, Umbrella plant response rating: 40
[3]
  Ducksalad plant response rating: 40
Corn (Zea mays); [12]
  Plant response rating, Corn: 0
Corn (Zea mays); [13]
  Plant response rating, Corn: 0
Kochia (Kochia scoparia); [12]
  Plant response rating, Kochia: 0
Kochia (Kochia scoparia); [14]
  Plant response rating, Kochia: 0
Kochia (Kochia scoparia); [13]
  Plant response rating, Kochia: 30
Kochia (Kochia scoparia); [15]
  Plant response rating, Kochia: 10
[4]; [12]
  Plant response rating, Foxtail, Giant: 0
[4]; [14]
  Plant response rating, Foxtail, Giant: 0
[4]; [13]
  Plant response rating, Foxtail, Giant: 10
[4]; [15]
  Plant response rating, Foxtail, Giant: 50
[5]; [12]
  Plant response rating, Barnyardgrass: 0
[5]; [14]
  Plant response rating, Barnyardgrass: 0
[5]; [13]
  Plant response rating, Barnyardgrass: 0
[5]; [15]
  Plant response rating, Barnyardgrass: 0
[6]; [12]
  Plant response rating, Pigweed: 40
[6]; [14]
  Plant response rating, Pigweed: 0
[6]; [13]
  Plant response rating, Pigweed: 80
[7]; [12]
  Plant response rating, Ragweed: 10
[7]; [14]
  Plant response rating, Ragweed: 0
[7]; [13]
  Plant response rating, Ragweed: 10
[8]; [12]
  Plant response rating, Ryegrass, Italian: 0
[8]; [14]
  Plant response rating, Ryegrass, Italian: 0
[8]; [13]
  Plant response rating, Ryegrass, Italian: 0
[9]; [12]
  Plant response rating, Wheat: 0
[9]; [13]
  Plant response rating, Wheat: 0
[10]; [12]
  Plant response rating, Blackgrass: 0
[10]; [13]
  Plant response rating, Blackgrass: 0
[11]; [12]
  Plant response rating, Galium: 30
[11]; [13]
  Plant response rating, Galium: 60

## FC(F)(F)c1csc(-c2ccccc2Oc2ncc(Br)cn2)n1 [Compound 139]
[1]
  Barnyardgrass plant response rating: 0
Rice (Oryza sativa)
  Rice plant response rating: 20
[2]
  Sedge, Umbrella plant response rating: 0
[3]
  Ducksalad plant response rating: 30
Corn (Zea mays); [13]
  Plant response rating, Corn: 0
Corn (Zea mays); [16]
  Plant response rating, Corn: 0
Kochia (Kochia scoparia); [13]
  Plant response rating, Kochia: 0
Kochia (Kochia scoparia); [16]
  Plant response rating, Kochia: 0
Kochia (Kochia scoparia); [17]
  Kochia plant response rating: 0
Kochia (Kochia scoparia); [18]
  Plant response rating, Kochia: 0
[4]; [13]
  Plant response rating, Foxtail, Giant: 0
[4]; [16]
  Plant response rating, Foxtail, Giant: 0
[4]; [17]
  Foxtail, Giant plant response rating: 0
[4]; [18]
  Plant response rating, Foxtail, Giant: 0
[5]; [13]
  Plant response rating, Barnyardgrass: 0
[5]; [16]
  Plant response rating, Barnyardgrass: 0
[5]; [17]
  Barnyardgrass plant response rating: 0
[5]; [18]
  Plant response rating, Barnyardgrass: 0
[6]; [13]
  Plant response rating, Pigweed: 0
[6]; [16]
  Plant response rating, Pigweed: 0
[6]; [17]
  Pigweed plant response rating: 0
[6]; [18]
  Plant response rating, Pigweed: 0
[7]; [13]
  Plant response rating, Ragweed: 0
[7]; [16]
  Plant response rating, Ragweed: 0
[7]; [17]
  Ragweed plant response rating: 0
[7]; [18]
  Plant response rating, Ragweed: 0
[8]; [13]
  Plant response rating, Ryegrass, Italian: 0
[8]; [16]
  Plant response rating, Ryegrass, Italian: 0
[8]; [17]
  Ryegrass, Italian plant response rating: 0
[8]; [18]
  Plant response rating, Ryegrass, Italian: 0
[9]; [13]
  Plant response rating, Wheat: 0
[9]; [16]
  Plant response rating, Wheat: 0
[10]; [13]
  Plant response rating, Blackgrass: 0
[10]; [16]
  Plant response rating, Blackgrass: 0
[11]; [13]
  Plant response rating, Galium: 0
[11]; [16]
  Plant response rating, Galium: 0

## Cn1nncc1-c1ccccc1Oc1ncc(Cl)cn1 [Compound 52]
[1]
  Barnyardgrass plant response rating: 0
Rice (Oryza sativa)
  Rice plant response rating: 0
[2]
  Sedge, Umbrella plant response rating: 0
[3]
  Ducksalad plant response rating: 0
Corn (Zea mays); [13]
  Plant response rating, Corn: 0
Corn (Zea mays); [16]
  Plant response rating, Corn: 10
Kochia (Kochia scoparia); [13]
  Plant response rating, Kochia: 20
Kochia (Kochia scoparia); [16]
  Plant response rating, Kochia: 50
Kochia (Kochia scoparia); [15]
  Plant response rating, Kochia: 0
Kochia (Kochia scoparia); [18]
  Plant response rating, Kochia: 30
[4]; [13]
  Plant response rating, Foxtail, Giant: 0
[4]; [16]
  Plant response rating, Foxtail, Giant: 0
[4]; [15]
  Plant response rating, Foxtail, Giant: 0
[4]; [18]
  Plant response rating, Foxtail, Giant: 0
[5]; [13]
  Plant response rating, Barnyardgrass: 0
[5]; [16]
  Plant response rating, Barnyardgrass: 10
[5]; [15]
  Plant response rating, Barnyardgrass: 0
[5]; [18]
  Plant response rating, Barnyardgrass: 0
[6]; [13]
  Plant response rating, Pigweed: 30
[6]; [16]
  Plant response rating, Pigweed: 60
[6]; [15]
  Plant response rating, Pigweed: 40
[6]; [18]
  Plant response rating, Pigweed: 50
[7]; [13]
  Plant response rating, Ragweed: 20
[7]; [16]
  Plant response rating, Ragweed: 20
[7]; [15]
  Plant response rating, Ragweed: 0
[7]; [18]
  Plant response rating, Ragweed: 0
[8]; [13]
  Plant response rating, Ryegrass, Italian: 0
[8]; [16]
  Plant response rating, Ryegrass, Italian: 0
[8]; [15]
  Plant response rating, Ryegrass, Italian: 0
[8]; [18]
  Plant response rating, Ryegrass, Italian: 0
[9]; [13]
  Plant response rating, Wheat: 0
[9]; [16]
  Plant response rating, Wheat: 20
[10]; [13]
  Plant response rating, Blackgrass: 0
[10]; [16]
  Plant response rating, Blackgrass: 10
[11]; [13]
  Plant response rating, Galium: 40
[11]; [16]
  Plant response rating, Galium: 50

## FC(F)(F)c1csc(-c2ccccc2Oc2ncc(Cl)cn2)n1 [Compound 137]
[1]
  Barnyardgrass plant response rating: 0
Rice (Oryza sativa)
  Rice plant response rating: 0
[2]
  Sedge, Umbrella plant response rating: 0
[3]
  Ducksalad plant response rating: 20
Corn (Zea mays); [13]
  Plant response rating, Corn: 0
Corn (Zea mays); [16]
  Plant response rating, Corn: 20
Kochia (Kochia scoparia); [13]
  Plant response rating, Kochia: 0
Kochia (Kochia scoparia); [16]
  Plant response rating, Kochia: 60
Kochia (Kochia scoparia); [17]
  Kochia plant response rating: 0
Kochia (Kochia scoparia); [18]
  Plant response rating, Kochia: 10
[4]; [13]
  Plant response rating, Foxtail, Giant: 0
[4]; [16]
  Plant response rating, Foxtail, Giant: 20
[4]; [17]
  Foxtail, Giant plant response rating: 0
[4]; [18]
  Plant response rating, Foxtail, Giant: 0
[5]; [13]
  Plant response rating, Barnyardgrass: 0
[5]; [16]
  Plant response rating, Barnyardgrass: 10
[5]; [17]
  Barnyardgrass plant response rating: 0
[5]; [18]
  Plant response rating, Barnyardgrass: 10
[6]; [13]
  Plant response rating, Pigweed: 30
[6]; [16]
  Plant response rating, Pigweed: 90
[6]; [17]
  Pigweed plant response rating: 0
[6]; [18]
  Plant response rating, Pigweed: 20
[7]; [13]
  Plant response rating, Ragweed: 0
[7]; [16]
  Plant response rating, Ragweed: 0
[7]; [17]
  Ragweed plant response rating: 0
[7]; [18]
  Plant response rating, Ragweed: 0
[8]; [13]
  Plant response rating, Ryegrass, Italian: 0
[8]; [16]
  Plant response rating, Ryegrass, Italian: 0
[8]; [17]
  Ryegrass, Italian plant response rating: 0
[8]; [18]
  Plant response rating, Ryegrass, Italian: 0
[9]; [13]
  Plant response rating, Wheat: 0
[9]; [16]
  Plant response rating, Wheat: 0
[10]; [13]
  Plant response rating, Blackgrass: 0
[10]; [16]
  Plant response rating, Blackgrass: 0
[11]; [13]
  Plant response rating, Galium: 0
[11]; [16]
  Plant response rating, Galium: 20

## CC(C)n1cnc(-c2ccccc2Oc2ncc(Cl)cn2)n1 [Compound 73]
[1]
  Barnyardgrass plant response rating: 0
Rice (Oryza sativa)
  Rice plant response rating: 0
[2]
  Sedge, Umbrella plant response rating: 0
[3]
  Ducksalad plant response rating: 0
Corn (Zea mays); [12]
  Plant response rating, Corn: 0
Corn (Zea mays); [13]
  Plant response rating, Corn: 0
Kochia (Kochia scoparia); [12]
  Plant response rating, Kochia: 0
Kochia (Kochia scoparia); [13]
  Plant response rating, Kochia: 0
Kochia (Kochia scoparia); [19]
  Kochia plant response rating: 0
Kochia (Kochia scoparia); [15]
  Plant response rating, Kochia: 0
[4]; [12]
  Plant response rating, Foxtail, Giant: 0
[4]; [13]
  Plant response rating, Foxtail, Giant: 0
[4]; [19]
  Foxtail, Giant plant response rating: 0
[4]; [15]
  Plant response rating, Foxtail, Giant: 0
[5]; [12]
  Plant response rating, Barnyardgrass: 0
[5]; [13]
  Plant response rating, Barnyardgrass: 0
[5]; [19]
  Barnyardgrass plant response rating: 0
[5]; [15]
  Plant response rating, Barnyardgrass: 0
[6]; [12]
  Plant response rating, Pigweed: 0
[6]; [13]
  Plant response rating, Pigweed: 10
[6]; [19]
  Pigweed plant response rating: 0
[6]; [15]
  Plant response rating, Pigweed: 0
[7]; [12]
  Plant response rating, Ragweed: 0
[7]; [13]
  Plant response rating, Ragweed: 0
[7]; [19]
  Ragweed plant response rating: 0
[7]; [15]
  Plant response rating, Ragweed: 0
[8]; [12]
  Plant response rating, Ryegrass, Italian: 0
[8]; [13]
  Plant response rating, Ryegrass, Italian: 0
[8]; [19]
  Ryegrass, Italian plant response rating: 0
[8]; [15]
  Plant response rating, Ryegrass, Italian: 0
[9]; [12]
  Plant response rating, Wheat: 0
[9]; [13]
  Plant response rating, Wheat: 0
[10]; [12]
  Plant response rating, Blackgrass: 0
[10]; [13]
  Plant response rating, Blackgrass: 0
[11]; [12]
  Plant response rating, Galium: 0
[11]; [13]
  Plant response rating, Galium: 10

Source: patent US10131652B2, “Pyrimidinyloxy benzene derivatives as herbicides” (E. I. DU PONT DE NEMOURS AND COMPANY, priority 2014, dated 2018)
